Among the data in PubChem BioAssay (NCI) are GI50 and TGI values, retold here.

Molecules are shown by their SMILES.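 Step 1: Grow cells in 96-well plates. Step 2: Expose to compound for 48 hours at 5 concentrations. Step 3: Interpolate endpoints linearly; if unreached, use highest concentration. The concentration for 50% growth inhibition is given as GI50. TGI marks complete inhibition of growth.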

What all share (test): NCI anticancer screen, dose series, 48 h
Assay [1] concerns SN12C renal.
In assay [2] the test system is HS 578T breast.
Assay [3] concerns MALME-3M melanoma.
Assay [4] relates to SK-MEL-28 melanoma.
Assay [5] has as its system SNB-19 CNS.
Assay [6] relates to NCI-H522 lung.
In assay [7] the test system is SR leukemia.
Assay [8] deals with SK-MEL-5 melanoma.
Assay [9] relates to U251 CNS.
Assay [10] concerns CCRF-CEM leukemia.

With `c1ccc(-c2nn(-c3ccccc3)[n+](-c3cccc4ccccc34)n2)cc1`, the GI50 in assay [1] is 2.45 µM; in [2], 1.77 µM; in [3], 0.333 µM; in [4] it was 2.36 µM; in [5] it was 2.01 µM; in [6] it was 0.979 µM. For the same molecule, the GI50 was 0.644 µM in assay [7], 0.674 µM in assay [8] and 0.967 µM in [9]. The TGI was more than 100 µM in assay [1]; more than 100 µM in assay [2]; 1.13 µM in assay [3]; 13.9 µM in assay [4]; more than 100 µM in assay [5]; 10.9 µM in [6]. Moreover, the TGI in [7] was 7.93 µM; in assay [8] it was 4.1 µM; in assay [9], more than 100 µM.
Consider `NC(=O)C(NC=O)c1ccccc1` (stereo not drawn), for which the TGI in assay [1], in assay [2], in assay [10], in assay [4], in [5] and in assay [6] was more than 100 µM in each case. For the same molecule, the TGI in [7], in assay [8] and in [9] was more than 100 µM in each case.
Turning to `COC(=O)[C@H](CC(C)C)NC(=O)NC(=O)NC(=O)CI`, the GI50 was 3.61 µM in assay [1]; 24.3 µM in assay [2]; 1.62 µM in [3]; 5.64 µM in assay [4]; 18 µM in assay [5]; 1.67 µM in [6]. Moreover, the GI50 was 1.25 µM in assay [7], 16.4 µM in assay [8] and 15.8 µM in [9]. Besides, the TGI in [1] came to 16.2 µM; in assay [2], 77.4 µM; in assay [3] it was 3.43 µM; in assay [4] it was 19.1 µM; in assay [5] it was 37.1 µM; in assay [6], 3.2 µM. The results for the TGI in assay [7], in assay [8] and in assay [9] were 4.37 µM, 30.3 µM and 29.3 µM, respectively.
For the molecule `COc1cccc(C2NC(=S)NC(C)=C2C(=O)Nc2ccc(F)c(Cl)c2)c1` (stereo not drawn), the GI50 was 26.1 µM in [1]; 13.5 µM in assay [2]; more than 50 µM in assay [5]; 20.8 µM in assay [6]; 15.8 µM in assay [7]; 13.3 µM in assay [8]. For the same molecule, the GI50 in [9] was 23.9 µM. The TGI is more than 50 µM in assay [1]; 40.2 µM in assay [2]; more than 50 µM in assay [5]; more than 50 µM in [6]; 40.2 µM in [7]; 32.9 µM in [8]. Also, in assay [9], the TGI is more than 50 µM.
Take `Cc1ccccc1N=Nc1c(O)[nH]c2ccccc12`: the TGI in assay [1], in assay [2], in [10], in [4], in assay [5] and in assay [6] was more than 100 µM throughout. Besides, the TGI in [7], in assay [8] and in assay [9] was more than 100 µM throughout.
Turning to `O=C1/C(=C\c2coc3ccccc3c2=O)c2ccccc2N1c1c(Cl)cccc1Cl`, the GI50 was 3.35 µM in assay [1]; 9.05 µM in assay [2]; 2.48 µM in [3]; 2.08 µM in [10]; 3.91 µM in [4]; 1.44 µM in [7]. For the same molecule, the GI50 is 2.44 µM in assay [8] and 1.45 µM in assay [9]. In addition, the TGI in assay [1] was more than 100 µM; in [2], more than 100 µM; in assay [3] it was 13 µM; in assay [10], more than 100 µM; in assay [4] it was more than 100 µM; in assay [7], 56.4 µM. Further, the TGI was more than 100 µM in [8] and 35.6 µM in [9].
As for `COc1ccc(/C=C/c2cc(N3CCOCC3)c3cc(F)c(F)cc3n2)cc1OC`, the GI50 was 1.68 µM in assay [1]; 2.37 µM in assay [2]; 0.31 µM in assay [10]; 1.44 µM in assay [4]; 1.11 µM in [5]; 0.454 µM in assay [6]. Moreover, the GI50 was 0.431 µM in assay [7], 0.52 µM in assay [8] and 0.728 µM in assay [9]. The TGI in assay [1] worked out at 14.1 µM; in [2], 28.8 µM; in [10] it was 10.2 µM; in assay [4], 11.6 µM; in [5] it was 12.4 µM; in [6] it was 2.72 µM. For the same molecule, the TGI is 6.78 µM in assay [7], 2.37 µM in assay [8] and 10.5 µM in assay [9].
For `CNC(C)C(=O)N[C@H](C(=O)N1CCC[C@@H]1CN(CCc1ccccc1)C(=O)C(F)(F)F)[C@H](C)OCC#CC#CCO[C@H](C)[C@H](NC(=O)[C@H](C)NC)C(=O)N1CCC[C@H]1CN(CCc1ccccc1)C(=O)C(F)(F)F` (stereo partly drawn), the GI50 in assay [1] was 1.78 µM; in assay [2] it was 1.55 µM; in [3] it was 0.0115 µM; in [10], 0.602 µM; in assay [4], 1.54 µM; in assay [5], 1.81 µM. For the same molecule, the GI50 in assay [6] was 0.724 µM; in assay [8], 1.31 µM; in assay [9], 1.1 µM. The TGI in assay [1] amounted to 3.32 µM; in [2], 3.65 µM; in assay [3], 0.716 µM; in [10], 2.54 µM; in [4], 2.96 µM; in [5], 3.43 µM. For the same molecule, the TGI was 2.18 µM in [6], 2.62 µM in assay [8] and 2.48 µM in assay [9].
For the molecule `COc1cc(C2CC(c3cc(C)ccc3C)=NN2c2ccc(S(=O)(=O)NC(=O)NCc3ccccc3)cc2)cc(OC)c1OC` (stereo not drawn), the GI50 in assay [1] is 3.15 µM; in [2], 2.68 µM; in [3], 3.48 µM; in assay [10] it was 3.15 µM; in assay [4], 2.26 µM; in [5], 3.75 µM. Further, the GI50 in assay [6] is 3.55 µM; in assay [8], 2.04 µM; in [9] it was 3.31 µM. Moreover, the TGI is 18.1 µM in [1]; 7.67 µM in [2]; 9.61 µM in [3]; 18.6 µM in assay [10]; 5.5 µM in assay [4]; 43.8 µM in assay [5]. For the same molecule, the figures for the TGI in [6], in assay [8] and in assay [9] were 21.6 µM, 4.36 µM and 17.3 µM, respectively.
